Data as given in US11498903B2 (BRISTOL-MYERS SQUIBB COMPANY, priority 2017, dated 2022).
Read-outs that look alike come from different tables or passages of the source.

Target: T1, human APJ receptor (Homo sapiens, UniProt P35414)
T1 construct: expressed in transfected cells
T1 sequence (P35414 1-380): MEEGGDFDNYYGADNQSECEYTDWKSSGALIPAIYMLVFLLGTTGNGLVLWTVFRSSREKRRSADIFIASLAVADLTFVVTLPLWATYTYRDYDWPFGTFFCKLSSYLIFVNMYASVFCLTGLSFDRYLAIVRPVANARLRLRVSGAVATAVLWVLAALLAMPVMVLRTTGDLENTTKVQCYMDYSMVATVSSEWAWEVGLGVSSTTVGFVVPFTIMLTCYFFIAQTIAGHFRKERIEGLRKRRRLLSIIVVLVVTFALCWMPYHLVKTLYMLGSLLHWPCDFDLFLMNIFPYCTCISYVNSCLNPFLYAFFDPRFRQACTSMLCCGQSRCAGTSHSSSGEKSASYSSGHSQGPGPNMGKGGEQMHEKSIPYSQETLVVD
Assay: Intracellular cAMP accumulation assay (APJ hcAMP, HTRF)
Type: cell-based
Method: Intracellular cAMP Accumulation Assay
HEK293 cells stably expressing human APJ receptor were used to assess the activity of compounds. Cultured cells were detached and resuspended in the cAMP Homogeneous Time-Resolved Fluorescence (HTRF) assay buffer (Cisbio cat; #62AM4PEJ). The assay was performed in 384-well assay plates (Perkin-Elmer; cat #6008289) according to assay protocol provided by the manufacturer. Serial dilutions of a compound together with assay buffer containing […] IBMX and 2 μM forskolin were added to each well containing 5,000 cells and incubated for 30 minutes at room temperature. Subsequently, cAMP D2 reagent was added in the lysis buffer followed by the EuK antibody (Cisbio; cat #62AM4PEJ) and incubated for 60 min. The fluorescence emission ratio was measured using fluorometer. The intracellular cAMP concentrations (compound-stimulated inhibition of forskolin-mediated cAMP production) were calculated by extrapolation from a standard curve using known cAMP concentrations. The EC50 values were obtained by fitting the data to a sigmoidal concentration-response curve with variable slope. The maximal achievable inhibition of forskolin-induced cAMP levels (Ymax) for each compound was expressed as relative percentage of inhibition attained using pyroglutamated apelin-13 ((Pyrl)apelin-13) peptide, which was set to 100%.
The exemplified Examples disclosed below were tested in the APJ in vitro assays described above and were found having human APJ cyclic AMP (hcAMP) activity. Table 1 lists hcAMP EC50 values measured for the following examples. Ranges are as followε: A=0.0-10 nM; B=10.01-100 nM; C=101-500 nM.

[1] = Table 1, HEK293 cells stably expressing human APJ receptor, inhibition of forskolin-mediated cAMP production, read-out: APJ hcAMP EC50
[2] = human APJ, cAMP, potency range class, read-out: APJ cAMP Human EC50
[3] = Table 3, HEK293 cells stably expressing human APJ receptor, read-out: APJ cAMP Human EC50

| Structure (SMILES) | EC50 [1] [nM] | EC50 [2] [nM] | EC50 [3] [nM] |
| --- | --- | --- | --- |
| CCC(NC(=O)c1ccc(-c2cc(Cl)ccc2-c2nc3ccccc3[nH]2)c(C(=O)O)c1)c1ccccn1 (racemic) [Example 213, 2′-(1H-1,3-benzodiazol-2-yl)-5′-chloro-4-{[1-(pyridin-2-yl)propyl]carbamoyl}-[1,1′-biphenyl]-2-carboxylic acid] | 10 to 100 | 10 to 100 |  |
| CCC(NC(=O)c1ccc(-c2cc(Cl)ccc2-c2nc3ccccc3[nH]2)c(C(=O)O)c1)c1ccncc1 (racemic) [Example 214, 2′-(1H-1,3-benzodiazol-2-yl)-5′-chloro-4-{[1-(pyridin-4-yl)propyl]carbamoyl}-[1,1′-biphenyl]-2-carboxylic acid] | 10 to 100 | 10 to 100 |  |
| CCC[C@@H](NC(=O)c1ccc(-c2c(C)cccc2-c2nc3cc(C(F)(F)F)ccc3[nH]2)c(C(=O)O)c1)c1ccccc1 (single isomer, unassigned) [Example 146] | < 10 |  | < 10 |
| CCC[C@@H](NC(=O)c1ccc(-c2c(C)cccc2-c2nc3cc(C(F)(F)F)ccc3[nH]2)c(C(=O)O)c1)c1ccccc1 (single isomer, unassigned) [Example 147] |  |  | 101 to 500 |
| CCCC(NC(=O)c1ccc(-c2c(Cl)cccc2-c2nc3cc(Cl)c(F)cc3[nH]2)c(C(=O)O)c1)C1CCCCC1 (single isomer, unassigned) [Example 161] | < 10 | < 10 |  |
| CCCC(NC(=O)c1ccc(-c2c(Cl)cccc2-c2nc3ccccc3[nH]2)c(C(=O)O)c1)c1c(C)cc(C)cc1C (single isomer, unassigned) [Example 163] | < 10 | < 10 |  |
| CCCC(NC(=O)c1ccc(-c2c(Cl)cccc2-c2nc3ccccc3[nH]2)c(C(=O)O)c1)c1ccc(Cl)cc1OC (single isomer, unassigned) [Example 164] | < 10 | < 10 |  |
| CCCC(NC(=O)c1ccc(-c2c(Cl)cccc2-c2nc3ccccc3[nH]2)c(C(=O)O)c1)c1ccc(F)cc1OC (single isomer, unassigned) [Example 165] | < 10 | < 10 |  |
| CCCC(NC(=O)c1ccc(-c2c(Cl)cccc2-c2nc3ccccc3[nH]2)c(C(=O)O)c1)c1ccc(Cl)cc1OC (single isomer, unassigned) [Example 166] | < 10 |  |  |
| CCCC(NC(=O)c1ccc(-c2c(Cl)cccc2-c2nc3ccccc3[nH]2)c(C(=O)O)c1)c1ccncc1 (single isomer, unassigned) [Example 168] | < 10 | < 10 |  |
| CCCC(NC(=O)c1ccc(-c2c(Cl)cccc2-c2nc3ccccc3[nH]2)c(C(=O)O)c1)c1ccccc1Cl (single isomer, unassigned) [Example 169] | < 10 | < 10 |  |
| CCCC(NC(=O)c1ccc(-c2c(Cl)cccc2-c2nc3ccccc3[nH]2)c(C(=O)O)c1)c1cccc(F)c1 (single isomer, unassigned) [Example 171] | < 10 | < 10 |  |
| CCCC(NC(=O)c1ccc(-c2c(Cl)cccc2-c2nc3ccccc3[nH]2)c(C(=O)O)c1)C1CCCCCC1 (single isomer, unassigned) [Example 173] | < 10 | < 10 |  |
| CCCC(NC(=O)c1ccc(-c2c(Cl)cccc2-c2nc3ccccc3[nH]2)c(C(=O)O)c1)c1ccccn1 (single isomer, unassigned) [Example 175] | < 10 | < 10 |  |
| CCC[C@H](NC(=O)c1ccc(-c2c(Cl)cccc2-c2nc3ccccc3[nH]2)c(C(=O)O)c1)c1ccccc1OC(F)(F)F (single isomer, unassigned) [Example 176] | < 10 | < 10 |  |
| CCC[C@H](NC(=O)c1ccc(-c2c(Cl)cccc2-c2nc3ccccc3[nH]2)c(C(=O)O)c1)C1CCCCC1 (single isomer, unassigned) [Example 177] | < 10 | < 10 |  |
| CCCC(NC(=O)c1ccc(-c2c(Cl)cccc2-c2nc3ccccc3[nH]2)c(C(=O)O)c1)c1c(F)cccc1OC (single isomer, unassigned) [Example 178] | < 10 | < 10 |  |
| CCCC(NC(=O)c1ccc(-c2c(Cl)cccc2-c2nc3ccccc3[nH]2)c(C(=O)O)c1)c1ccc(Cl)cc1F (single isomer, unassigned) [Example 182] | < 10 | < 10 |  |

| Structure (SMILES) | EC50 [1] [nM] | EC50 [2] [nM] | EC50 [3] [nM] |
| --- | --- | --- | --- |
| CCCC(NC(=O)c1ccc(-c2c(Cl)cccc2-c2nc3ccccc3[nH]2)c(C(=O)O)c1)C1CCCC1 (single isomer, unassigned) [Example 183] | < 10 | < 10 |  |
| CCCC(NC(=O)c1ccc(-c2c(Cl)cccc2-c2nc3ccccc3[nH]2)c(C(=O)O)c1)c1ccc(Cl)cc1F (single isomer, unassigned) [Example 184] | < 10 |  |  |
| CCC[C@H](NC(=O)c1ccc(-c2c(Cl)cccc2-c2nc3ccccc3[nH]2)c(C(=O)O)c1)c1cccc(Cl)c1 (single isomer, unassigned) [Example 185] | < 10 | < 10 |  |
| CCCC(NC(=O)c1ccc(-c2c(Cl)cccc2-c2nc3ccccc3[nH]2)c(C(=O)O)c1)c1cncs1 (single isomer, unassigned) [Example 186] | < 10 | < 10 |  |
| CCCC(NC(=O)c1ccc(-c2c(Cl)cccc2-c2nc3ccccc3[nH]2)c(C(=O)O)c1)c1ccccc1C(F)(F)F (single isomer, unassigned) [Example 189] | 10 to 100 | 10 to 100 |  |
| CCCC(NC(=O)c1ccc(-c2c(Cl)cccc2-c2nc3ccccc3[nH]2)c(C(=O)O)c1)c1ccccc1OC(F)(F)F (single isomer, unassigned) [Example 191] | 10 to 100 | 10 to 100 |  |
| CCCC(NC(=O)c1ccc(-c2c(Cl)cccc2-c2nc3ccccc3[nH]2)c(C(=O)O)c1)c1ccncc1 (single isomer, unassigned) [Example 192] | 10 to 100 | 10 to 100 |  |
| CCCC(NC(=O)c1ccc(-c2c(Cl)cccc2-c2nc3cc(OC)c(F)cc3[nH]2)c(C(=O)O)c1)C1CCCC1 (single isomer, unassigned) [Example 195] | < 10 | < 10 |  |
| CCC[C@H](NC(=O)c1ccc(-c2c(Cl)cccc2-c2nc3cc(OC)c(F)cc3[nH]2)c(C(=O)O)c1)c1ccccc1C(F)(F)F (single isomer, unassigned) [Example 196] | < 10 | < 10 |  |
| CCCC(NC(=O)c1ccc(-c2c(Cl)cccc2-c2nc3cc(OC)c(F)cc3[nH]2)c(C(=O)O)c1)c1ccc(Cl)cc1OC (single isomer, unassigned) [Example 197] | < 10 | < 10 |  |
| CCCC(NC(=O)c1ccc(-c2c(Cl)cccc2-c2nc3cc(OC)c(F)cc3[nH]2)c(C(=O)O)c1)C1CCCCC1 (single isomer, unassigned) [Example 198] | < 10 | < 10 |  |
| CCC[C@H](NC(=O)c1ccc(-c2c(Cl)cccc2-c2nc3cc(Cl)c(F)cc3[nH]2)c(C(=O)O)c1)c1ccncc1 (single isomer, unassigned) [Example 199] | < 10 | < 10 |  |
| CCC[C@H](NC(=O)c1ccc(-c2c(Cl)cccc2-c2nc3cc(Cl)c(F)cc3[nH]2)c(C(=O)O)c1)c1ccc(Cl)cc1OC (single isomer, unassigned) [Example 200] | < 10 | < 10 |  |
| CCCC(NC(=O)c1ccc(-c2c(Cl)cccc2-c2nc3cc(Cl)c(F)cc3[nH]2)c(C(=O)O)c1)c1c(C)cc(C)cc1C (single isomer, unassigned) [Example 201] | < 10 | < 10 |  |
| COC(=O)c1cc(C(=O)N[C@H](c2ccc(Cl)cc2)C2CC2)ccc1-c1c(Cl)cccc1-c1nc2cc(OC)c(F)cc2[nH]1 (single isomer, unassigned) [Example 204] | 101 to 500 | 101 to 500 |  |
| COc1cc2nc(-c3cccc(Cl)c3-c3ccc(C(=O)N[C@H](c4ccc(Cl)cc4)C4CC4)cc3CO)[nH]c2cc1F (single isomer, unassigned) [Example 205] | 10 to 100 | 10 to 100 |  |
| CCCC(NC(=O)c1ccc(-c2cc(Cl)ccc2-c2nc3ccccc3[nH]2)c(C(=O)O)c1)c1ccc(F)cc1 (single isomer, unassigned) [Example 209, 2′-(1H-1,3-benzodiazol-2-yl)-5′-chloro-4-{[1-(4-fluorophenyl)butyl]carbamoyl}-[1,1′-biphenyl]-2-carboxylic acid] | < 10 | < 10 |  |
